Here are results for 18 molecules from ChEMBL document CHEMBL5729175, “Pharmaceutical composition for preventing or treating acute myeloid leukemia or metastatic breast cancer” (2022).

This experiment concerns the target T1, Receptor-type tyrosine-protein kinase FLT3 (Homo sapiens, UniProt P36888).
T1 sequence (P36888 whole entry): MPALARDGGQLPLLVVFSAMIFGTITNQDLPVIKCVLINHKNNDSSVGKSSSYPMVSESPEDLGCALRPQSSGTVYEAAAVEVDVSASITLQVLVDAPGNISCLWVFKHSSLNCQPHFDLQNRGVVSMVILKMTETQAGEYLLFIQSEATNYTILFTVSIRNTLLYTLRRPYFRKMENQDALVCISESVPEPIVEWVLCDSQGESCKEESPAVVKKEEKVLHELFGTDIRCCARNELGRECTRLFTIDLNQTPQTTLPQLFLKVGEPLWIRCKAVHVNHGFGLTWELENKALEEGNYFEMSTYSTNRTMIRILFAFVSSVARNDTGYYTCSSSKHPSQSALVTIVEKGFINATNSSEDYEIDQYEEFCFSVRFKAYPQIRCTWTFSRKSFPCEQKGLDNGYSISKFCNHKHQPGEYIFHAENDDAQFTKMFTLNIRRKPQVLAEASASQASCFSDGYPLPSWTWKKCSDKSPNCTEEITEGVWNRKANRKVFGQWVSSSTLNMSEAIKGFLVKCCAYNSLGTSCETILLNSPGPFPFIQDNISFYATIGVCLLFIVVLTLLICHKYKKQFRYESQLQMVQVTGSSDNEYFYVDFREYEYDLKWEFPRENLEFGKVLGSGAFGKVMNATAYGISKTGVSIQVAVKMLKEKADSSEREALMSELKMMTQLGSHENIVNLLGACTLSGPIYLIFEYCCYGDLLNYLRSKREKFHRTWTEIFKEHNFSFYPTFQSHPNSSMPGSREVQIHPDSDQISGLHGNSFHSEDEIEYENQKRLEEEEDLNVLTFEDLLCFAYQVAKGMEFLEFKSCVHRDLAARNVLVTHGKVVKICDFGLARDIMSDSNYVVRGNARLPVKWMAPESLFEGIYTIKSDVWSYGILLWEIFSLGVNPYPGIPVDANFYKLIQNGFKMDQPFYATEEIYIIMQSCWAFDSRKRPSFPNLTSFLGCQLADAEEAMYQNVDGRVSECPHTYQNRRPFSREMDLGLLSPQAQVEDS
Put plainly: In Vitro Kinase Assay: The inhibition of the FLT3 kinase activity was measured with homogeneous, time-resolved fluorescence (HTRF) assays. Recombinant proteins containing the FLT3 kinase domain were purchased from Invitrogen (Carlsbad, Calif., USA). Optimal enzyme, ATP, and substrate concentrations were established with the HTRF KinEASE kit (Cisbio, France) according to the manufacturer's instructions. The FLT3 enzymes were mixed with serially diluted compounds and peptide substrates in a kinase reaction buffer (50 mM HEPES (pH 7.0), 500 μM ATP, 0.1 mM sodium orthovanadate, 5 mM MgCl2, 1 mM DTT, 0.01% bovine serum albumin (BSA), and 0.02% NaN3). Ten microliters of the total volume of the kinase reaction were added to the wells of a 96-well assay plate. The kinase reactions were incubated for 30 min at 25° C. For the detection of the phospho-substrate, the Eu3b-Cryptate-conjugated mouse monoclonal antibody (PT66) and the streptavidin-XL665 (SA-XL) were added, and the reactions were then incubated for 1 hour at 25° C. The signal was measured on an Victor X5 multi-label reader (PerkinElmer, Waltham, Mass., USA).

Structures are written as SMILES.

The term IC50 denotes the concentration that gives 50% inhibition. On to `CN1CCN(CCO/N=C2/C(=C3/C(=O)Nc4ccc(I)cc43)Nc3ccccc32)CC1`, for which the IC50 came to 5.8 nM.

With `O=C1Nc2ccccc2/C1=C1/Nc2ccccc2/C1=N\OCCN1CCCC1`, the IC50 came to 51.9 nM.

Turning to `O=C1Nc2ccc(I)cc2/C1=C1/Nc2ccccc2/C1=N\OCCN1CCNCC1`, the IC50 came to 1.8 nM.

Regarding `O=C1Nc2ccc([N+](=O)[O-])cc2/C1=C1/Nc2ccc(F)cc2/C1=N\OCCN1CCNCC1`, the IC50 was 35.5 nM.

As to `O=C1Nc2ccc(F)cc2/C1=C1/Nc2ccccc2/C1=N\OCCN1CCNCC1`, the IC50 amounted to 0.9 nM.

In the case of `CN1CCN(CCO/N=C2/C(=C3/C(=O)Nc4ccc(F)cc43)Nc3ccc(F)cc32)CC1`, the IC50 was 40.4 nM.

With `O=C1Nc2ccc([N+](=O)[O-])cc2/C1=C1/Nc2ccc(F)cc2/C1=N\OCCN1CCCCC1`, the IC50 amounted to 453 nM.

As to `COC(=O)c1ccc2c(c1)/C(=C1/Nc3ccccc3/C1=N\OCCN1CCOCC1)C(=O)N2`, the IC50 was found to be 253 nM.

Consider `O=C1Nc2ccc(Br)cc2/C1=C1/Nc2ccccc2/C1=N\OCCN1CCNCC1`, for which the IC50 was determined as 1 nM.

Regarding `O=C1Nc2ccc(F)cc2/C1=C1/Nc2ccc(F)cc2/C1=N\OCCN1CCNCC1`, the IC50 came to 26.2 nM.

Turning to `CN1CCN(CCO/N=C2/C(=C3/C(=O)Nc4ccccc43)Nc3ccccc32)CC1`, the IC50 came out at 7.42 nM.

As for `O=C1Nc2ccc([N+](=O)[O-])cc2/C1=C1/Nc2ccc(F)cc2/C1=N\OCCN1CCCC1`, the IC50 came out at 112 nM.

With `NC1CCN(CCO/N=C2/C(=C3/C(=O)Nc4ccc(F)cc43)Nc3ccc(F)cc32)CC1`, the IC50 stood at 81.5 nM.

Consider `CN1CCN(CCO/N=C2/C(=C3/C(=O)Nc4ccc(Cl)cc43)Nc3ccccc32)CC1`, for which the IC50 amounted to 2.4 nM.

On to `O=C1Nc2ccc(Cl)cc2/C1=C1/Nc2ccccc2/C1=N\OCCN1CCNCC1`, for which the half-maximal inhibitory concentration (IC50) turned out to be 1.3 nM.

With `O=C1Nc2ccccc2/C1=C1/Nc2ccccc2/C1=N\OCCN1CCCCC1`, the IC50 was determined as 251 nM.

With `CN1CCN(CCO/N=C2/C(=C3/C(=O)Nc4ccc([N+](=O)[O-])cc43)Nc3ccc(F)cc32)CC1`, the IC50 was 35.5 nM.

Take `CN1CCN(CCO/N=C2/C(=C3/C(=O)Nc4ccc(F)cc43)Nc3ccccc32)CC1`: the IC50 turned out to be 3.2 nM.
